These results are taken from patent publication US12516058B2, “Small-molecule compounds for controlling endosomal toll-like receptors and therapeutic agent for autoimmune diseases using same” (priority 2020, dated 2026).

The structures appear in SMILES notation. “Also recorded” adds a separate entry of the source.

For test [1], the target named is T1, TLR7 (Mus musculus, UniProt P58681).
T1 construct: endogenous in cells; host or cells: RAW 264.7
T1 sequence (P58681 27-1050): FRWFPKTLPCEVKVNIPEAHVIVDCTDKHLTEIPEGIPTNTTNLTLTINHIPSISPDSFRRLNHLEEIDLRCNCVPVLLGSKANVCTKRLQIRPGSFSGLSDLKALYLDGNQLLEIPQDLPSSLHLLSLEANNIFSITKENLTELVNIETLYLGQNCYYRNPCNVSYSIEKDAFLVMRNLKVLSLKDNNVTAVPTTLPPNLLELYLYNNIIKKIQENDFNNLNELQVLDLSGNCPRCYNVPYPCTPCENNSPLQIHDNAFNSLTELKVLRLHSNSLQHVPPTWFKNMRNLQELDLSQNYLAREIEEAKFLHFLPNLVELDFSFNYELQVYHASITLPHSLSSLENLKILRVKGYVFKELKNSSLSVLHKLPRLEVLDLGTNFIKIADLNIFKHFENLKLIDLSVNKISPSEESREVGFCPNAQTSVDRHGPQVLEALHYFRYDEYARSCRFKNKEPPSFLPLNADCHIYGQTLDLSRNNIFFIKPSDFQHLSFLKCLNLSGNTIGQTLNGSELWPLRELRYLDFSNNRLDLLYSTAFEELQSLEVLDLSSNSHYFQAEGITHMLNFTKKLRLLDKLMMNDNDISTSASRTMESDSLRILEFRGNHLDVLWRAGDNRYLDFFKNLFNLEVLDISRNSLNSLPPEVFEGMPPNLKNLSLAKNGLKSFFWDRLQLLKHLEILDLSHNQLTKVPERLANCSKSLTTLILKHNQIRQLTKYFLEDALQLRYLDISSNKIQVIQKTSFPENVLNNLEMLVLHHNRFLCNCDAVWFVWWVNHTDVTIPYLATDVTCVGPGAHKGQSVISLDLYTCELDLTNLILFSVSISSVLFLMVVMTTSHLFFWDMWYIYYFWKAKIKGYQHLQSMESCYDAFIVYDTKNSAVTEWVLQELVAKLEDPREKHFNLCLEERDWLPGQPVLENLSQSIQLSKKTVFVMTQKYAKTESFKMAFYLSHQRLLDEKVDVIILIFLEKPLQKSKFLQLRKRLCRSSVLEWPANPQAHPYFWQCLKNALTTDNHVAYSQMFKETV
Briefly: TNF-α secretion ELISA after TLR7 agonist imiquimod (IMQ) in RAW 264.7 cells. It is filed as cell-based. As to conditions: SK21 to SK82 at 0.5 μM or 2 μM, Imiquimod 1 μg/ml. Here is the method: (§1) In order to determine the inhibitory activities of the test-ligand, RAW 264.7 cells were pretreated with each candidate compound for 1 hour, then treated with Pam3CSK4 (synthetic triacyl lipopeptide; TLR1/2, Invitrogen), FSL-1 (synthetic diacyl lipoprotein, TLR2/6, 100 ng/ml), lipopolysaccharide (LPS, TLR4, Sigma Aldrich), imiquimod (IMQ, TLR7, Invitrogen), and ODN2395 (type C CpG repeat motif DNA oligo(5′-[…]-3), TLR9, Bioneer) ligand for 4 hours, and treated with poly I:C (I:C repeat motif double-stranded RNA, TLR3, Invitrogen) and TL8-506 (TLR8, Invitrogen) showing delayed reactivity for 24 hours. After activation of TLR, the supernatant was diluted in an appropriate ratio so as to measure within the standard dose range, transferred to a pre-coated 96-well assay plate, and then treated with mouse TNF-alpha secretion level in accordance with the manufacturer's instructions using a mouse-TNF-alpha ELISA-kit (Invitrogen).
(§2) In order to plot the concentration-dependent LC50 curves, treatment with the SK series ligands at different concentrations up to 200 μM (the highest concentration that could be treated within the level of 0.5% DMSO) was performed. Then, cell viability and toxicity response upon treatment with ligands were analyzed by MTT as described in Examples 1-3. Cell viability in each plot was normalized from negative control (100%; no treatment) to positive control (highest concentration of test-ligand), and LC50 was determined by non-linear regression (Graph Pad Prism 7.0). In order to plot the concentration-dependent IC50 curves, pre-treatment with the SK series ligands was performed at different concentrations up to 50 μM (twice the initial concentration). Cell responses mediated by TLR7 and TLR9 (levels of TNF-α secretion) were analyzed by ELISA as described in Examples 1-4. The cytokine level in each plot was normalized from negative control (non-treated) to positive control (treatment with ligand), and IC50 was determined by non-linear regression (Graph Pad Prism 7.0).
(§3) In order to select potential inhibitory molecules against TLR3/TLR7/TLR8/TLR9 activation, first, MTT (3-(4,5-dimethylthiazol-2-yl)-2,5-diphenyltetrazolium bromide) cell viability assay (FIG. 7) was performed upon treatment with a set of ligands from SK21 to SK82 at a concentration of 20 μM and the inhibitory activity thereof was evaluated by an ELISA assay to monitor the level of TNF-α secretion in RAW 264.7 cells. The experimental ligands from SK21 to SK82 were administered at 0.5 μM or 2 μM to the RAW 264.7 cells and stimulated with Imiquimod (TLR7, 1 μg/ml) and OND2395 (TLR9, 0.5 μM).
On the technique in general: In an ELISA, binding on a coated surface is turned into a signal by an enzyme label.

Test [2] deals with T2, TLR9 (Mus musculus, UniProt Q9EQU3).
T2 construct: endogenous in cells; host or cells: RAW 264.7
T2 sequence (Q9EQU3 26-1032): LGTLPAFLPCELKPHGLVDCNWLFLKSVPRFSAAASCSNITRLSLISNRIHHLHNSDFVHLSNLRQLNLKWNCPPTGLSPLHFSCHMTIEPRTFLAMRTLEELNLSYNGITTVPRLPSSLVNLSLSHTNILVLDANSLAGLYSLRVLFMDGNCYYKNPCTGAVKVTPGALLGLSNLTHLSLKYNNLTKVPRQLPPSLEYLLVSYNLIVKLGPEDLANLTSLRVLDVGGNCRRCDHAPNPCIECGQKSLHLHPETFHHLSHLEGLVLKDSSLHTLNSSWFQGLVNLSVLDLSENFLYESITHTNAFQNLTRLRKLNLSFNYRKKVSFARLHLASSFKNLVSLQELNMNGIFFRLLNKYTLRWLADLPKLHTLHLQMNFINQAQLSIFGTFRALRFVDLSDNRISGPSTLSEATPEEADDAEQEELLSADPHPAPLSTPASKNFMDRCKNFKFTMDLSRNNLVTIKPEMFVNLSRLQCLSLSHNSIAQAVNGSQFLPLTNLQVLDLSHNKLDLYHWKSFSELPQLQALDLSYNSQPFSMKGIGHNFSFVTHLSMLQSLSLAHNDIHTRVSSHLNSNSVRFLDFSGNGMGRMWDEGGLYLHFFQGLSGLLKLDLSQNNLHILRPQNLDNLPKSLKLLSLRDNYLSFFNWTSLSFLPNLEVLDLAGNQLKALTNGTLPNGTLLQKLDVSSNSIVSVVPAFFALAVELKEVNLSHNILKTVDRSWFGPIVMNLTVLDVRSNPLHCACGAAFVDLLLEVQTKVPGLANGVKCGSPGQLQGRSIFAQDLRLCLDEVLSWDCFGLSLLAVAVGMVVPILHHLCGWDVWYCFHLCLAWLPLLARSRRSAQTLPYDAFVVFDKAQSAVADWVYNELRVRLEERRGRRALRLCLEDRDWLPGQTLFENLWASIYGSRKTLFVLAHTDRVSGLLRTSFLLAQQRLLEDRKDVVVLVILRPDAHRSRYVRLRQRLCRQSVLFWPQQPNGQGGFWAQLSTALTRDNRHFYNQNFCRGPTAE
Briefly: TNF-α secretion ELISA after TLR9 agonist ODN2395 in RAW 264.7 cells. The conditions noted are these: SK21 to SK82 at 0.5 μM or 2 μM, ODN2395 0.5 μM. It is filed as cell-based. Here is the method:
as §1, §2, §3

On to `CN(C)CCCn1c2ccc(Cl)cc2c2c(N)c3c(nc21)CCCC3` [SK60, 9-chloro-6-(3-(dimethylamino)propyl)-2,3,4,6-tetrahydro-1H-indolo[2,3-b]quinolin-11-amine], for which the “inhibitory activity against TLR7 (level of TNF-α secretion)” value (from here on “inhibitory activity against TLR7”) in test [1] was “significant inhibitory activity; also recorded: significantly reduced”. Besides, the “inhibitory activity against TLR9 (level of TNF-α secretion)” value (shortened to “inhibitory activity against TLR9”) in test [2] is on record as “significant inhibitory activity; also recorded: significantly reduced”.
With `Cc1ccc2c3c(N)c4c(nc3n(CCCN(C)C)c2c1)CCCC4` [SK81, 6-(3-(dimethylamino)propyl)-8-methyl-2,3,4,6-tetrahydro-1H-indolo[2,3-b]quinolin-11-amine], the “inhibitory activity against TLR7” value in test [1] is listed as “significant inhibitory activity; also recorded: significantly reduced”. Besides, the “inhibitory activity against TLR9” value in test [2] is reported as “significant inhibitory activity; also recorded: significantly reduced”.
For `CN(C)CCCn1c2ccc(OC(F)(F)F)cc2c2c(N)c3c(nc21)CCCC3` [SK61, 6-(3-(dimethylamino)propyl)-9-(trifluoromethoxy)-2,3,4,6-tetrahydro-1H-indolo[2,3-b]quinolin-11-amine], the “inhibitory activity against TLR7” value in test [1] was “significant inhibitory activity; also recorded: significantly reduced”. Further, in test [2], the “inhibitory activity against TLR9” value was “significant inhibitory activity; also recorded: significantly reduced”.
For the molecule `CN(C)CCCNc1c2c(nc3c1c1c4ccccc4ccc1n3CCCN(C)C)CCCC2` [SK72, N1-(7-(3-(dimethylamino)propyl)-9,10,11,12-tetrahydro-7H-benzo[4,5]indolo[2,3-b]quinolin-13-yl)-N3,N3-dimethylpropane-1,3-diamine], the “inhibitory activity against TLR7” value in test [1] is recorded as “significant inhibitory activity; also recorded: significantly reduced”. In addition, the “inhibitory activity against TLR9” value in test [2] is listed as “significant inhibitory activity; also recorded: significantly reduced”.
As for `CN(C)CCCn1c2ccc(O)cc2c2c(N)c3c(nc21)CCCC3` [SK71, 11-amino-6-(3-(dimethylamino)propyl)-2,3,4,6-tetrahydro-1H-indolo[2,3-b]quinolin-9-ol], in test [1], the “inhibitory activity against TLR7” value is “significant inhibitory activity; also recorded: significantly reduced”. The “inhibitory activity against TLR9” value in test [2] is “significant inhibitory activity; also recorded: significantly reduced”.
In the case of `Cc1c(C)n(CCCN(C)Cc2ccccc2)c2nc3c(c(N)c12)CCCCC3` [SK23, 1-(3-(benzyl(methyl)amino)propyl)-2,3-dimethyl-1,5,6,7,8,9-hexahydrocyclohepta[b]pyrrolo[3,2-e]pyridin-4-amine], in test [1], the “inhibitory activity against TLR7” value is given as “significant inhibitory activity; also recorded: significantly reduced”. Moreover, the “inhibitory activity against TLR9” value in test [2] is “significant inhibitory activity; also recorded: significantly reduced”.
Take `CNCCCn1c2ccc(OC)cc2c2c(N)c3c(nc21)CCCC3` [SK54, 9-methoxy-6-(3-(methylamino)propyl)-2,3,4,6-tetrahydro-1H-indolo[2,3-b]quinolin-11-amine]: the “inhibitory activity against TLR7” value in test [1] is “significant inhibitory activity; also recorded: significantly reduced”. Also, in test [2], the “inhibitory activity against TLR9” value is reported as “significant inhibitory activity; also recorded: significantly reduced”.
Take `CN(C)CCCn1c2ccc(F)cc2c2c(N)c3c(nc21)CCCC3` [SK59, 6-(3-(dimethylamino)propyl)-9-fluoro-2,3,4,6-tetrahydro-1H-indolo[2,3-b]quinolin-11-amine]: in test [1], the “inhibitory activity against TLR7” value is “significant inhibitory activity; also recorded: significantly reduced”. Also, the “inhibitory activity against TLR9” value in test [2] is recorded as “significant inhibitory activity; also recorded: significantly reduced”.
On to `CCc1nc2c(cc(C)n2CCCN(C)C)c(N)c1C` [SK40, 1-(3-(dimethylamino)propyl)-6-ethyl-2,5-dimethyl-1H-pyrrolo[2,3-b]pyridin-4-amine], for which the “inhibitory activity against TLR7” value in test [1] is “significant inhibitory activity; also recorded: significantly reduced”. Moreover, in test [2], the “inhibitory activity against TLR9” value is recorded as “significant inhibitory activity; also recorded: significantly reduced”.
Consider `Cc1c(C)n(CCCN(C)C)c2nc3c(c(N)c12)CCCC3` [SK36, 1-(3-(dimethylamino)propyl)-2,3-dimethyl-5,6,7,8-tetrahydro-1H-pyrrolo[2,3-b]quinolin-4-amine], for which the “inhibitory activity against TLR7” value in test [1] was “significant inhibitory activity; also recorded: significantly reduced”. The “inhibitory activity against TLR9” value in test [2] is “significant inhibitory activity; also recorded: significantly reduced”.
For the molecule `CNCCCn1c2ccccc2c2c(N)c3c(nc21)CCCC3` [SK55, 6-(3-(methylamino)propyl)-2,3,4,6-tetrahydro-1H-indolo[2,3-b]quinolin-11-amine], the “inhibitory activity against TLR7” value in test [1] is given as “significant inhibitory activity; also recorded: significantly reduced”. The “inhibitory activity against TLR9” value in test [2] was “significant inhibitory activity; also recorded: significantly reduced”.
